Test results taken from patent US20250129070A1, “BIFUNCTIONAL ANDROGEN RECEPTOR COMPOUNDS” (priority 2023, published 2025).

Columns and labels:
AR / CBP ternary complex = assay: Ternary complex formation assay (sandwich ELISA, AR capture / CBP detection) in VCaP cell lysates; format: cell-based; details: 1.5 hours treatment, sandwich ELISA (AR capture, CBP or p300 detection)
Method in brief: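 VCaP cells (50K/well, 5% charcoal-stripped FBS, ≥3 days) treated with bifunctional compound for 1.5 h, then lysed 30 min at 4 °C. AR captured on anti-AR (AR 441) plates; bound CBP or p300 detected by rabbit mAb plus HRP secondary. QuantaRed chemifluorescence read at ex 570/em 585, immediately and at 5 and 15 min.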

VCaP cells = assay: VCaP growth inhibition assay; format: cell-based; details: 30 pM R1881, 9 days, CTG
Method in brief: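 VCaP cells in phenol red-free DMEM/5% CSS, pre-incubated 72 h, then stimulated with R1881 (final 30 pM) and treated with 1:5 serial dilutions (final 100 nM to 10 fM) for 9 days at 37 °C. Viability by CellTiter-Glo luminescence; IC50 from 4-parameter logistic fit of RLU vs concentration.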

Structure (SMILES) | EC50 (AR / CBP ternary complex) [nM] | IC50 (VCaP cells) [nM]
COc1cc(OC2C(C)(C)C(NC(=O)c3ccc(N4CCC(CCn5cc(-c6cc7cccc(-c8nn(C9CCOCC9)c9c8CN(C(C)=O)CC9)c7cn6)cn5)CC4)cc3)C2(C)C)ccc1C#N (stereo not drawn) [Compound 244, 4-[4-[2-[4-[8-(5-acetyl-1-tetrahydropyran-4-yl-6,7-dihydro-4H-pyrazolo[4,3-c]pyridin-3-yl)-3-isoquinolyl]pyrazol-1-yl]ethyl]-1-piperidyl]-N-[3-(4-cyano-3-methoxy-phenoxy)-2,2,4,4-tetramethyl-cyclobutyl]benzamide] | 1 to 10 | 0.1 to 1
Cn1c(=O)n(C)c2cc(N3CCCc4cc(-c5ccc(CCC6CCN(c7ncc(C(=O)NC8C(C)(C)C(Oc9ccc(C#N)c(Cl)c9)C8(C)C)cn7)CC6)nc5)ncc43)ccc21 (stereo not drawn) [Compound 234, N-[3-(3-chloro-4-cyano-phenoxy)-2,2,4,4-tetramethyl-cyclobutyl]-2-[4-[2-[5-[1-(1,3-dimethyl-2-oxo-benzimidazol-5-yl)-3,4-dihydro-2H-1,7-naphthyridin-6-yl]-2-pyridyl]ethyl]-1-piperidyl]pyrimidine-5-carboxamide] | 1 to 10 | > 100
COc1cc(OC2C(C)(C)C(NC(=O)c3ccc(OC4CCC5(CC4)CC(N4CCC(n6nc(N7CCCc8cc(-c9cnn(C)c9)c(C(F)F)cc87)c7c6CCN(C(C)=O)C7)CC4)C5)cc3)C2(C)C)ccc1C#N (stereo not drawn) [Compound 396, 4-[2-[4-[5-acetyl-3-[7-(difluoromethyl)-6-(1-methylpyrazol-4-yl)-3,4-dihydro-2H-quinolin-1-yl]-6,7-dihydro-4H-pyrazolo[4,3-c]pyridin-1-yl]-1-piperidyl]spiro[3.5]nonan-7-yl]oxy-N-[3-(4-cyano-3-methoxy-phenoxy)-2,2,4,4-tetramethyl-cyclobutyl]benzamide] | < 1 | 0.1 to 1
COc1cc(OC2C(C)(C)C(NC(=O)c3ccc(N4CC(N5CCCC6(CCC(n7nc(N8CCCc9cc(-c%10cnn(C)c%10)c(C(F)F)cc98)c8c7CCN(C(C)=O)C8)CC6)C5)C4)cc3)C2(C)C)ccc1C#N (stereo not drawn) [Compound 415, 4-[3-[9-[5-acetyl-3-[7-(difluoromethyl)-6-(1-methylpyrazol-4-yl)-3,4-dihydro-2H-quinolin-1-yl]-6,7-dihydro-4Hpyrazolo[4,3-c]pyridin-1-yl]-2-azaspiro[5.5]undecan-2-yl]azetidin-1-yl]-N-[3-(4-cyano-3-methoxy-phenoxy)-2,2,4,4-tetramethyl-cyclobutyl]benzamide] | 1 to 10 | 1 to 100
CC(=O)N1CCc2c(c(N3CCCc4cc(-c5cnn(C)c5)c(C(F)F)cc43)nn2C2CCC(C3CCC4(CC3)CN(c3ncc(C(=O)NC5C(C)(C)C(Oc6ccc(C#N)c(Cl)c6)C5(C)C)cn3)C4)CC2)C1 (stereo not drawn) [Compound 377, 2-[7-[4-[5-acetyl-3-[7-(difluoromethyl)-6-(1-methylpyrazol-4-yl)-3,4-dihydro-2H-quinolin-1-yl]-6,7-dihydro-4H-pyrazolo[4,3-c]pyridin-1-yl]cyclohexyl]-2-azaspiro[3.5]nonan-2-yl]-N-[3-(3-chloro-4-cyano-phenoxy)-2,2,4,4-tetramethyl-cyclobutyl]pyrimidine-5-carboxamide] | 1 to 10 | 1 to 100
COc1cc(OC2C(C)(C)C(NC(=O)c3ccc(N4CC5(CCC(N6CCC(n7nc(-c8cccc9cc(-c%10cnn(C)c%10)ncc89)c8c7CCN(C(C)=O)C8)CC6)CC5)C4)cc3)C2(C)C)ccc1C#N (stereo not drawn) [Compound 448, 4-[7-[4-[5-acetyl-3-[3-(1-methylpyrazol-4-yl)-8-isoquinolyl]-6,7-dihydro-4H-pyrazolo[4,3-c]pyridin-1-yl]-1-piperidyl]-2-azaspiro [3.5]nonan-2-yl]-N-[3-(4-cyano-3-methoxy-phenoxy)-2,2,4,4-tetramethyl-cyclobutyl]benzamide] | < 1 | 0.1 to 1
CC(=O)N1CCc2c(c(N3CCCc4cc(-c5cnn(C)c5)c(C(F)F)cc43)nn2C2CCN([C@@H]3CCCN(c4ncc(C(=O)NC5C(C)(C)C(Oc6ccc(C#N)c(Cl)c6)C5(C)C)cn4)C3)CC2)C1 (stereo partly drawn) [Compound 398, 2-[(3R)-3-[4-[5-acetyl-3-[7-(difluoromethyl)-6-(1-methylpyrazol-4-yl)-3,4-dihydro-2H-quinolin-1-yl]-6,7-dihydro-4H-pyrazolo[4,3-c]pyridin-1-yl]-1-piperidyl]-1-piperidyl]-N-[3-(3-chloro-4-cyano-phenoxy)-2,2,4,4-tetramethyl-cyclobutyl]pyrimidine-5-carboxamide] | 1 to 10 | 1 to 100
CC(=O)N1CCc2c(c(N3CCCc4cc(-c5cnn(C)c5)c(C(F)F)cc43)nn2C2CCN(C3CC4(CCC(Oc5ncc(C(=O)NC6C(C)(C)C(Oc7ccc(C#N)c(Cl)c7)C6(C)C)cn5)CC4)C3)CC2)C1 (stereo not drawn) [Compound 395, 2-[2-[4-[5-acetyl-3-[7-(difluoromethyl)-6-(1-methylpyrazol-4-yl)-3,4-dihydro-2H-quinolin-1-yl]-6,7-dihydro-4H-pyrazolo[4,3-c]pyridin-1-yl]-1-piperidyl]spiro[3.5]nonan-7-yl]oxy-N-[3-(3-chloro-4-cyano-phenoxy)-2,2,4,4-tetramethyl-cyclobutyl]pyrimidine-5-carboxamide] | < 1 | 0.1 to 1
CC(=O)N1CCc2c(c(N3CCCc4cc(-c5cnn(C)c5)c(C(F)F)cc43)nn2C2CC3(C2)CN(C(=O)C2CC4(C2)CN(c2ncc(C(=O)NC5C(C)(C)C(Oc6ccc(C#N)c(Cl)c6)C5(C)C)cn2)C4)C3)C1 (stereo not drawn) [Compound 217, 2-[6-[6-[5-acetyl-3-[7-(difluoromethyl)-6-(1-methylpyrazol-4-yl)-3,4-dihydro-2H-quinolin-1-yl]-6,7-dihydro-4H-pyrazolo[4,3-c]pyridin-1-yl]-2-azaspiro[3.3]heptane-2-carbonyl]-2-azaspiro[3.3]heptan-2-yl]-N-[3-(3-chloro-4-cyano-phenoxy)-2,2,4,4-tetramethyl-cyclobutyl]pyrimidine-5-carboxamide] | < 1 | 0.1 to 1
CC(=O)N1CCc2c(c(Nc3ccc(-c4cnn(C)c4)cc3F)nn2C2CCN(CC3CCN(c4ncc(C(=O)NC5C(C)(C)C(Oc6ccc(C#N)c(Cl)c6)C5(C)C)cn4)CC3)CC2)C1 (stereo not drawn) [Compound 186, 2-[4-[[4-[5-acetyl-3-[2-fluoro-4-(1-methylpyrazol-4-yl)anilino]-6,7-dihydro-4H-pyrazolo[4,3-c]pyridin-1-yl]-1-piperidyl]methyl]-1-piperidyl]-N-[3-(3-chloro-4-cyano-phenoxy)-2,2,4,4-tetramethyl-cyclobutyl]pyrimidine-5-carboxamide] | < 1 | 0.1 to 1
Cn1c(=O)sc2ccc(N3CCCc4cc(-c5ccc(CCC6CCN(c7ncc(C(=O)NC8C(C)(C)C(Oc9ccc(C#N)c(Cl)c9)C8(C)C)cn7)CC6)nc5)ncc43)cc21 (stereo not drawn) [Compound 237, N-[3-(3-chloro-4-cyano-phenoxy)-2,2,4,4-tetramethyl-cyclobutyl]-2-[4-[2-[5-[1-(3-methyl-2-oxo-1,3-benzothiazol-5-yl)-3,4-dihydro-2H-1,7-naphthyridin-6-yl]-2-pyridyl]ethyl]-1-piperidyl]pyrimidine-5-carboxamide] | < 1 | 1 to 100
CC(=O)N1CCc2c(c(N3CCCc4cc(-c5cnn(C)c5)c(C)cc43)nn2C2CCN(CC3C(C)CN(c4ncc(C(=O)NC5C(C)(C)C(Oc6ccc(C#N)c(Cl)c6)C5(C)C)cn4)CC3C)CC2)C1 (stereo not drawn) [Compound 444, 2-[4-[[4-[5-acetyl-3-[7-methyl-6-(1-methylpyrazol-4-yl)-3,4-dihydro-2H-quinolin-1-yl]-6,7-dihydro-4H-pyrazolo[4,3-c]pyridin-1-yl]-1-piperidyl]methyl]-3,5-dimethyl-1-piperidyl]-N-[3-(3-chloro-4-cyano-phenoxy)-2,2,4,4-tetramethyl-cyclobutyl]pyrimidine-5-carboxamide] | < 1 | 0.1 to 1
CC(=O)N1CCc2c(c(N3CCCc4ccc(C(F)F)cc43)nn2C2CC3(C2)CN(CC2CC4(C2)CN(c2ncc(C(=O)NC5C(C)(C)C(Oc6ccc(C#N)c(Cl)c6)C5(C)C)cn2)C4)C3)C1 (stereo not drawn) [Compound 219, 2-[6-[[6-[5-acetyl-3-[7-(difluoromethyl)-3,4-dihydro-2H-quinolin-1-yl]-6,7-dihydro-4H-pyrazolo[4,3-c]pyridin-1-yl]-2-azaspiro[3.3]heptan-2-yl]methyl]-2-azaspiro[3.3]heptan-2-yl]-N-[3-(3-chloro-4-cyano-phenoxy)-2,2,4,4-tetramethyl-cyclobutyl]pyrimidine-5-carboxamide] | 1 to 10 | 0.1 to 1
COc1cc(OC2C(C)(C)C(NC(=O)c3ccc(N4CCC(OC5CCC(n6nc(N7CCCc8cc(-c9cnn(C)c9)c(C(F)F)cc87)c7c6CCN(C(C)=O)C7)CC5)CC4)cc3)C2(C)C)ccc1C#N (stereo not drawn) [Compound 309, 4-[4-[4-[5-acetyl-3-[7-(difluoromethyl)-6-(1-methylpyrazol-4-yl)-3,4-dihydro-2H-quinolin-1-yl]-6,7-dihydro-4H-pyrazolo[4,3-c]pyridin-1-yl]cyclohexoxy]-1-piperidyl]-N-[3-(4-cyano-3-methoxy-phenoxy)-2,2,4,4-tetramethyl-cyclobutyl]benzamide] | < 1 | 0.1 to 1
COc1cc(OC2C(C)(C)C(NC(=O)c3ccc(N4CCC(CN5CCC(n6nc(N7CCCc8cc(-c9cnn(C)c9)c(C(F)F)cc87)c7c6CCN(C(C)=O)C7)CC5)(OC)CC4)cc3)C2(C)C)ccc1C#N (stereo not drawn) [Compound 264, 4-[4-[[4-[5-acetyl-3-[7-(difluoromethyl)-6-(1-methylpyrazol-4-yl)-3,4-dihydro-2H-quinolin-1-yl]-6,7-dihydro-4H-pyrazolo[4,3-c]pyridin-1-yl]-1-piperidyl]methyl]-4-methoxy-1-piperidyl]-N-[3-(4-cyano-3-methoxy-phenoxy)-2,2,4,4-tetramethyl-cyclobutyl]benzamide] | < 1 | 0.1 to 1
